These results are taken from PubChem BioAssay (NCI).

Test systems include A498 renal; ACHN renal; CCRF-CEM leukemia; COLO 205 colon; HCT-15 colon; KM12 colon; MCF7 breast; MDA-MB-435; NCI-H522 lung; OVCAR-5 ovarian; RXF 393 renal; SF-539 CNS; SK-OV-3 ovarian.
What all share (assay): NCI-60 cell line screen, 48 h

Several values for one entry are separate records, joined by “and”; a condition that tells them apart may be missing. Equal entries are not always repeated.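 Step 1: Grow cells in 96-well plates. Step 2: Expose to compound for 48 hours at 5 concentrations. Step 3: Interpolate endpoints linearly; if unreached, use highest concentration. The concentration for 50% growth inhibition is given as GI50. The concentration for full growth arrest is given as TGI.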 Where a SMILES comes first, the peptide text is derived from it. The star is where a group is joined. Boc = CC(C)(C)OC(=O)*; Bn = c1ccc(C*)cc1

For `CNC(=O)C(CC(C)C)NC(=O)C(C)NC(=O)C(Cc1ccc(OCc2ccccc2)cc1)NC(=O)C(COCc1ccccc1)NC(=O)OC(C)(C)C` (stereo not drawn) (Boc-S(Bn)Y(Bn)AL-NHMe; configuration not given here), the GI50 in the test with A498 renal was 33.7 µM and 12.5 µM; in the test with ACHN renal, > 100 µM and 13 µM; in the test with CCRF-CEM leukemia, 4.39 µM and 10.5 µM; in the test on COLO 205 colon, 17.3 µM and 2.11 µM; in the test on MDA-MB-435 it was 20.7 µM and 10.1 µM; with OVCAR-5 ovarian, > 73.2 µM and 21.2 µM. Further, the GI50 with RXF 393 renal was 47.6 µM and 7.04 µM. Also, the TGI was 94 µM and 30.3 µM in the test with A498 renal; over 100 µM in the test on ACHN renal; 18.9 µM and 39.6 µM with CCRF-CEM leukemia; 38.3 µM and 9.52 µM in the test on COLO 205 colon; over 100 µM in the test on HCT-15 colon; > 44.2 µM and 40.3 µM in the test on KM12 colon. For the same compound, the TGI is 35.5 µM and 26.2 µM with MCF7 breast; > 55.9 µM and 27.9 µM with MDA-MB-435; 37.4 µM in the test on NCI-H522 lung; > 100 µM and 51.6 µM in the test on OVCAR-5 ovarian; > 100 µM and 24.3 µM with RXF 393 renal; over 57.8 µM with SF-539 CNS. In addition, in the test with SK-OV-3 ovarian, the TGI was > 60.3 µM and 39.6 µM.

As for `O=S(=O)(CCC[C@H]1[C@@H](CCOCc2ccccc2)C2CCCN1O2)c1ccccc1` (stereo partly drawn), the TGI with A498 renal, in the test with ACHN renal, in the test with CCRF-CEM leukemia, in the test on COLO 205 colon, with HCT-15 colon and in the test on KM12 colon was over 100 µM each time. Further, the TGI in the test with MCF7 breast, with MDA-MB-435, in the test with NCI-H522 lung, with OVCAR-5 ovarian, in the test with RXF 393 renal and with SF-539 CNS was over 100 µM throughout. Besides, the TGI in the test with SK-OV-3 ovarian is over 100 µM.

For `C(#CC1(Nc2ccccc2)CCN(Cc2ccccc2)CC1)C1(Nc2ccccc2)CCN(Cc2ccccc2)CC1`, the TGI in the test with A498 renal was over 46.4 µM; in the test on ACHN renal, over 56.2 µM; in the test with CCRF-CEM leukemia it was 37.3 µM; with COLO 205 colon it was 3.5 µM; in the test with HCT-15 colon, over 46.4 µM; in the test with KM12 colon, over 56.2 µM. Also, the TGI is over 56.2 µM in the test on MCF7 breast; over 100 µM in the test on MDA-MB-435; over 56.2 µM in the test with NCI-H522 lung; over 56.2 µM in the test with OVCAR-5 ovarian; 25.7 µM in the test on RXF 393 renal; 34.9 µM in the test with SF-539 CNS. The compound further showed a TGI in the test with SK-OV-3 ovarian of 13.1 µM.

Regarding `CN1CC2=C(NC(=S)NC2c2ccccc2Cl)/C(=C/c2ccccc2Cl)C1` (stereo not drawn), the TGI is over 100 µM in the test on A498 renal; over 100 µM in the test on ACHN renal; over 100 µM in the test with CCRF-CEM leukemia; 60.4 µM in the test with COLO 205 colon; over 100 µM in the test with HCT-15 colon; over 100 µM in the test on KM12 colon. Further, the TGI with MCF7 breast, in the test on MDA-MB-435, with NCI-H522 lung, in the test on OVCAR-5 ovarian, in the test with RXF 393 renal and in the test with SF-539 CNS was over 100 µM in each case. The compound also displayed a TGI in the test with SK-OV-3 ovarian of over 100 µM.

Regarding `CS(=O)(=O)O[C@H]1[C@H](O)c2ccccc2[C@@H]1N=[N+]=[N-]`, the TGI in the test on A498 renal, in the test on ACHN renal, in the test on CCRF-CEM leukemia, with COLO 205 colon, with HCT-15 colon and in the test on KM12 colon was over 100 µM in each case. In addition, the TGI with MCF7 breast, in the test with MDA-MB-435, with NCI-H522 lung, with OVCAR-5 ovarian, in the test on RXF 393 renal and in the test on SF-539 CNS was over 100 µM throughout. The TGI in the test with SK-OV-3 ovarian was over 100 µM.

Consider `CCC12C=CCN3CCC4(c5cc(C(c6ccc(OC)cc6)C6Cc7ccccc7N6)c(OC)cc5N(C)C4C(O)(C(=O)OC)C1O)C32` (stereo not drawn), for which the TGI was 80.3 µM in the test on A498 renal; over 100 µM in the test with ACHN renal; 16.6 µM with CCRF-CEM leukemia; 27.5 µM in the test on COLO 205 colon; over 100 µM in the test with HCT-15 colon; 36.5 µM with KM12 colon. The TGI with MCF7 breast was 28.3 µM; in the test on MDA-MB-435 it was 80.4 µM; with NCI-H522 lung, 98 µM; in the test with OVCAR-5 ovarian, over 100 µM; with RXF 393 renal, 83.1 µM; in the test on SF-539 CNS, 78.4 µM. For the same compound, the TGI in the test with SK-OV-3 ovarian was over 100 µM.

With `CC(C)Cn1cnc2c(Cl)nc3ccccc3c21`, the TGI with A498 renal, with ACHN renal, in the test on CCRF-CEM leukemia, in the test with COLO 205 colon, with HCT-15 colon and in the test with KM12 colon was over 100 µM throughout. Moreover, the TGI with MCF7 breast, in the test with MDA-MB-435, in the test on NCI-H522 lung, in the test with OVCAR-5 ovarian, with RXF 393 renal and in the test with SF-539 CNS was over 100 µM each time. For the same compound, the TGI in the test with SK-OV-3 ovarian was over 100 µM.
